Test results reported in patent publication US20250332173A1, “COMPOUNDS AND METHODS FOR MODULATING NUCLEIC ACID SPLICING” (REMIX THERAPEUTICS INC., priority 2021, published 2025).
Where two headings read alike, the source gives them in different places.

Assays:
[1] = system: Target C; experiment: RT-qPCR splicing assay panel, Target C canonical junction (CJ) mRNA; format: cell-based, human; details: Homo sapiens; Table 5 panel; canonical junction qPCR; compound concentration having 50% response in CJ decrease; read-out: Target C IC50 (decrease in CJ mRNA levels)
Procedure, shortened: (§1)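 A673 or K562 cells were treated for 24 h at 37 °C with compound in 11-point 3-fold dilution (top 10 uM final, DMSO ≤0.25%). Lysates then went to one-step RT-qPCR measuring canonical-junction mRNA, normalized to GAPDH, GUSB or PPIA.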

[2] = system: HTT mRNA; experiment: RT-qPCR splicing assay, HTT canonical junction (CJ) and alternative junction (AJ) mRNA; format: cell-based, human; details: Homo sapiens; for AC50: increase in HTT alternative junction (AJ) mRNA, read-out: HTT AJ AC50
Procedure, shortened: (§2)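 A673 cells (normalized to PPIA) or K562 cells (normalized to GAPDH or GUSB) were treated 24 h at 37 °C with an 11-point 3-fold dilution series, top 10 uM, DMSO ≤0.25%. Cell lysates went to one-step RT-qPCR measuring canonical- and alternative-junction MYB or HTT transcripts.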

[3] = system: K562 (human chronic myelogenous leukemia) cells; experiment: Cell Titer Glo 2.0 cell viability assay; format: cell-based; details: Homo sapiens, K562, 72 h, K562 cells, 72 hours, Cell Titer Glo 2.0; read-out: K562 GI50
Experimental: Compounds described herein were screened for toxicity in K562 (human chronic myelogenous leukemia) cells using a Cell Titer Glo 2.0 assay.
Cells were plated at 500 cells/well (K562 cells) in 45 μL of IMDM supplemented with 1000 FBS in a 384-well opaque plate. Wells containing only medium were used as a blank control. Test compounds (e.g., compounds ofFormula (I), (II), (III), (IV), (V), (VI), (VII), (VIII), and (IX)) were first serially diluted in DMSO then diluted 1:100 with IMDM+10% FBS. The final concentration of DMSO was 0.1% in each well. The cells were incubated for 72 hours at 37° C. and 500 CO2 before assaying with Cell Titer Glo 2.0 reagent.

[4] = system: MYB mRNA; experiment: RT-qPCR splicing assay, MYB canonical junction (CJ) and alternative junction (AJ) mRNA; format: cell-based, human; details: Homo sapiens; for AC50: increase in MYB alternative junction (AJ) mRNA, read-out: MYB AJ AC50
Procedure, shortened: as §2

[5] = system: SMN2 mRNA; experiment: RT-qPCR splicing assay, SMN2 canonical junction (CJ) mRNA; format: cell-based, human; details: Homo sapiens; Table 5 panel; canonical junction qPCR; compound concentration having 50% response in CJ decrease; read-out: SMN2 IC50 (decrease in CJ mRNA levels)
Procedure, shortened: as §1

[6] = decrease in HTT canonical junction (CJ) mRNA, RT-qPCR, read-out: HTT CJ IC50
[7] = Table 5 panel, canonical junction qPCR, compound concentration having 50% response in CJ decrease, read-out: HTT IC50 (decrease in CJ mRNA levels)
[8] = Table 5 panel, canonical junction qPCR, compound concentration having 50% response in CJ decrease, read-out: MYB IC50 (decrease in CJ mRNA levels)
[9] = decrease in MYB canonical junction (CJ) mRNA, RT-qPCR, read-out: MYB CJ IC50

| SMILES | IC50 [1] | IC50 [2, 6] | AC50 ([2]; RT-qPCR) | IC50 [2, 7] | GI50 [3] | IC50 [4, 8] | IC50 [4, 9] | AC50 ([4]; RT-qPCR) | IC50 [5] |
| --- | --- | --- | --- | --- | --- | --- | --- | --- | --- |
| O=C1c2ccc(-c3cn[nH]c3)cc2CCN1C1CCNCC1 [Compound 220, 2-(piperidin-4-yl)-6-(1H-pyrazol-4-yl)-3,4-dihydroisoquinolin-1-one] | > 10 µM | > 10 µM | > 10 µM | > 10 µM | > 10 µM | > 10 µM | > 10 µM | > 10 µM | > 10 µM |
| Cc1cn2cc(-c3ccc4c(c3)CCN(C3CCNCC3)C4=O)nc2c(C)n1 [Compound 221, 6-[6,8-dimethylimidazo[1,2-a]pyrazin-2-yl]-2-(piperidin-4-yl)-3,4-dihydroisoquinolin-1-one] | > 10 µM | > 10 µM | > 10 µM | > 10 µM | 1 to 10 µM | > 10 µM | > 10 µM | > 10 µM | 0.1 to 1 µM |
| Cc1cn2nc(-c3ccc4c(c3)CCN(C3CCNCC3)C4=O)nc2c(C)n1 [Compound 222, 6-[6,8-dimethyl-[1,2,4]triazolo[1,5-a]pyrazin-2-yl]-2-(piperidin-4-yl)-3,4-dihydroisoquinolin-1-one] | 1 to 10 µM | 1 to 10 µM | 1 to 10 µM | 1 to 10 µM | 1 to 10 µM | 1 to 10 µM | 1 to 10 µM | 1 to 10 µM | 0.1 to 1 µM |
| Cc1cn2nc(-c3ccc4c(c3)CCN(C3CCNCC3)C4=O)cc2c(C)n1 [Compound 223, 6-[4,6-dimethylpyrazolo[1,5-a]pyrazin-2-yl]-2-(piperidin-4-yl)-3,4-dihydroisoquinolin-1-one] | > 10 µM | 1 to 10 µM | 1 to 10 µM | 1 to 10 µM | 1 to 10 µM | 0.1 to 1 µM | 0.1 to 1 µM | 0.1 to 1 µM | 0.1 to 1 µM |
| Cc1cn2cc(-c3ccc4c(c3)CCN(C3CCNCC3)C4=O)ncc2n1 [Compound 224] | > 10 µM | > 10 µM | > 10 µM | > 10 µM | > 10 µM | > 10 µM | 1 to 10 µM | > 10 µM | 0.1 to 1 µM |
| Cn1cc2cc(-c3ccc4c(c3)CCN(C3CCNCC3)C4=O)cc(F)c2n1 [Compound 225] | > 10 µM | > 10 µM | > 10 µM | > 10 µM | 1 to 10 µM | > 10 µM | > 10 µM | > 10 µM | > 10 µM |
| Cc1nc2c(F)cc(-c3ccc4c(c3)CCN(C3CCNCC3)C4=O)cc2s1 [Compound 226] | > 10 µM | > 10 µM | > 10 µM | > 10 µM | 1 to 10 µM | 1 to 10 µM | 1 to 10 µM | 1 to 10 µM | 0.1 to 1 µM |
| Cc1cn2cc(-c3ccc4c(=O)n(C5CCN(C)CC5)cnc4c3F)cc(F)c2n1 [Compound 227] | > 10 µM | 1 to 10 µM | 1 to 10 µM | 1 to 10 µM | 1 to 10 µM | 1 to 10 µM | 1 to 10 µM | 1 to 10 µM | 0.1 to 1 µM |
| Cc1cn2cc(-n3cnc4cc(N5CCNCC5)ccc4c3=O)cc(F)c2n1 [Compound 228] | 0.1 to 1 µM | 0.1 to 1 µM | 0.1 to 1 µM | 0.1 to 1 µM | 0.1 to 1 µM | 0.1 to 1 µM | 0.1 to 1 µM | 0.1 to 1 µM | 0.1 to 1 µM |
| Cc1cn2cc(-n3cnc4cc(N5CCN(C)CC5)ccc4c3=O)cc(F)c2n1 [Compound 229] | > 10 µM | > 10 µM | > 10 µM | > 10 µM | > 10 µM | > 10 µM | > 10 µM | > 10 µM | > 10 µM |
| Cc1cn2cc(-c3cc(F)c4c(=O)n(C5CCNCC5)cnc4c3)cc(F)c2n1 [Compound 230] | < 0.1 µM | < 0.1 µM | < 0.1 µM | < 0.1 µM | 0.1 to 1 µM | < 0.1 µM | < 0.1 µM | < 0.1 µM | < 0.1 µM |
| Cc1cn2cc(-c3cc(F)c4c(=O)n(C5CCN(C)CC5)cnc4c3)cc(F)c2n1 [Compound 231, 5-fluoro-7-{8-fluoro-2-methylimidazo[1,2-a]pyridin-6-yl}-3-(1-methylpiperidin-4-yl)quinazolin-4-one] | 1 to 10 µM | 0.1 to 1 µM | 0.1 to 1 µM | 0.1 to 1 µM | 0.1 to 1 µM | 0.1 to 1 µM | 0.1 to 1 µM | 0.1 to 1 µM | < 0.1 µM |
| Cc1cc(-c2cc(F)c3c(=O)n(C4CCNCC4)cnc3c2)cc2cn(C)nc12 [Compound 232] | 0.1 to 1 µM | < 0.1 µM | < 0.1 µM | < 0.1 µM | 0.1 to 1 µM | < 0.1 µM | < 0.1 µM | < 0.1 µM | < 0.1 µM |
| Cc1cc(-c2cc(F)c3c(=O)n(C4CCN(C)CC4)cnc3c2)cc2cn(C)nc12 [Compound 233] | 1 to 10 µM | 0.1 to 1 µM | 0.1 to 1 µM | 0.1 to 1 µM | 0.1 to 1 µM | 0.1 to 1 µM | 0.1 to 1 µM | 0.1 to 1 µM | < 0.1 µM |
| Cc1cc(-c2ccc3c(=O)n(C4CCNCC4)cnc3c2F)cc2cn(C)nc12 [Compound 234] | > 10 µM | 1 to 10 µM | 1 to 10 µM | 1 to 10 µM | 1 to 10 µM | 1 to 10 µM | 1 to 10 µM | 1 to 10 µM | < 0.1 µM |
| Cc1cc(-c2ccc3c(=O)n(C4CCN(C)CC4)cnc3c2F)cc2cn(C)nc12 [Compound 235] | > 10 µM | > 10 µM | > 10 µM | > 10 µM | 1 to 10 µM | > 10 µM | > 10 µM | > 10 µM | 0.1 to 1 µM |
| Cc1cn2cc(-c3ccc4c(=O)n(C5CCNC6(CC6)C5)cnc4c3)cc(F)c2n1 (stereo not drawn) [Compound 236] | 0.1 to 1 µM | 0.1 to 1 µM | 0.1 to 1 µM | 0.1 to 1 µM | 0.1 to 1 µM | 0.1 to 1 µM | < 0.1 µM | 0.1 to 1 µM | < 0.1 µM |
| Cc1cn2cc(-c3ccc4c(=O)n(C5CCNC(C)(C)C5)cnc4c3)cc(F)c2n1 (stereo not drawn) [Compound 237] | 1 to 10 µM | 0.1 to 1 µM | 0.1 to 1 µM | 0.1 to 1 µM | 0.1 to 1 µM | 0.1 to 1 µM | 0.1 to 1 µM | 0.1 to 1 µM | < 0.1 µM |
